Data as given in article PMC12112332, “Characterization of Novel and Known Activators of Cannabinoid Receptor Subtype 2 Reveals Mixed Pharmacology That Differentiates Mycophenolate Mofetil and GW-842,166X from MDA7” (International Journal of Molecular Sciences, 2025).

Target: T1, rat CB2 (Rattus norvegicus, UniProt Q9QZN9)
T1 sequence (Q9QZN9 1-360): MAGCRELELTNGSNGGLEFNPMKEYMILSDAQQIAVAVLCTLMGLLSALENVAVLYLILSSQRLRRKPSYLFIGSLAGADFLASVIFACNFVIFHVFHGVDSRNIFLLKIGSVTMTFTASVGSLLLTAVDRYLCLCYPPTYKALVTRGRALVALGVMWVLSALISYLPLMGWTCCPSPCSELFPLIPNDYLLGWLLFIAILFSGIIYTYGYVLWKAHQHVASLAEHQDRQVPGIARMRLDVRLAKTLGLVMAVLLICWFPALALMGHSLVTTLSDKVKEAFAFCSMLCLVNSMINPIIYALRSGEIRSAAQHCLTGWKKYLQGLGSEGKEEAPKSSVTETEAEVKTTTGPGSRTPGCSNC
Test: [3H]CP55,940 radioligand competition binding, membranes of HEK/GIRK cells expressing rat CB2
Set-up: expressed in transfected cells; host or cells: HEK293 cells stably co-expressing GIRK1/2 channels
Description: Agonists that bind to the receptor at the site occupied by the endogenous ligand (2-AG in this case) are considered orthosteric agonists. It is also possible for an agonist to bind and activate a receptor via a site other than the orthosteric site; these ligands are classified as allosteric agonists. To characterize the nature of the agonist activity of mycophenolate mofetil, we tested its ability to bind to the receptor in equilibrium binding assays using membranes harvested from cells expressing rCB2 using the radioligand [^3H]CP55,940 [40, 60]. CP55,940 has an affinity for both CB1 and CB2 receptors in the low nM range and is reported to bind to the site occupied by 2-AG [61].
Competition binding concentration–response curves were obtained in the presence of 0.5 nM [^3H]CP55,940 using membranes harvested from HEK/GIRK cells expressing rCB2. Data represent the mean ± SEM of three independent experiments run in triplicate. Data are plotted as a percentage of specific [^3H]CP55,940 binding. Non-specific binding was determined in the presence of 10 µM CP55,940.
Membranes were made from HEK/GIRK cells stably expressing rat CB2. Radioligand competition binding assays were performed as previously described, with minor modifications. In brief, compounds were serially diluted into assay buffer with 0.1% bovine serum albumin (BSA) and added to each well of a 96-well plate, along with 20 μg/well cell membrane and approximately 500 pM [^3H]-CP55,940 (specific activity = 104 Ci/mmol, PerkinElmer, Waltham, MA, USA). Following a 3-h incubation period on a shaker at room temperature, membrane-bound ligand was separated from free ligand by filtration through glass fiber 96-well filter plates (Unifilter-96, GF/B; PerkinElmer, Waltham, MA, USA). Forty microliters of scintillation fluid were added to each well, and membrane-bound radioactivity was determined by scintillation counting (Microbeta2; Revvity, Waltham, MA, USA). Nonspecific binding was determined using 10 μM of cold CP55,940.

Row | SMILES | Ki [µM] | rCB2 Binding Affinity pKi ± SEM (0.5 nM [3H]CP55,940, equilibrium)
1 | CCCCC/C=C\C/C=C\C/C=C\C/C=C\CCCC(=O)OC(CO)CO [2-AG, 2-Arachidonoylglycerol] | 3.47 | –
2 | COc1ccc(C(=O)c2c(C)n(CCN3CCOCC3)c3cc(I)ccc23)cc1 [AM630] | – | 7.61 ± 0.29
